Patent US20090270394A1, “CYCLYLAMINE DERIVATIVES AS CALCIUM CHANNEL BLOCKERS” (priority 2008, published 2009)

Biological target: T1, Human Cav2.2 channels (Homo sapiens, UniProt Q00975)
T1 construct: expressed in transfected cells
Test: Fluorescent assay for Cav2.2 channels using potassium depolarization to initiate channel opening
Format: cell-based
Conditions: for inhibition at 10 µM: 10 μM compound, read-out: Cav 2.2 Activity % Inh at 10 μM; for IC50: 30 mM K (block of open and inactivated channels), read-out: Cav 2.2 Activity IC50 at 30 mM K; for inhibition at 30 µM: 30 μM compound, read-out: Cav 2.2 Activity % Inh at 30 μM
Description: Human Cav2.2 channels were stably expressed in HEK293 cells along with alpha2-delta and beta subunits of voltage-gated calcium channels. An inwardly rectifying potassium channel (Kir2.3) was also expressed in these cells to allow more precise control of the cell membrane potential by extracellular potassium concentration. At low bath potassium concentration, the membrane potential is relatively negative, and is depolarized as the bath potassium concentration is raised. In this way, the bath potassium concentration can be used to regulate the voltage-dependent conformations of the channels. […] After the incubation period, Cav2.2 channel opening is triggered by addition of higher concentration of potassium (70 mM final concentration) to further depolarize the cell. The degree of state-dependent block can be estimated from the inhibitory potency of compounds after incubation in different potassium concentrations.
Calcium influx through Cav2.2 channels is determined using a calcium sensitive fluorescent dye in combination with a fluorescent plate reader. Fluorescent changes were measured with either a VIPR (Aurora Instruments) or FLIPR (Molecular Devices) plate reader.
• 1. Seed cells in Poly-D-Lysine Coated 96 or 384-well plate and keep in a 37° C.-10% CO2 incubator overnight • 2. […] Incubate in the dark at 25° C. for 60-70 min • 5. Remove dye, wash cells with 0.1 mL (96-well plate) or 0.06 mL (384-well plate) of 4, 12, 25, or 30 mM Potassium Pre-polarization Buffer (PPB) • 6. […] Incubate in the dark at 25° C. for 30 min • 8. Read cell plate on VIPR instrument, Excitation=480 nm, Emission=535 nm • 9. With VIPR continuously reading, add 0.1 mL (96-well plate) or 0.03 mL (384-well plate) of Depolarization Buffer (DB), which is 2× the final assay concentration, to the cell plate.

T1 sequence (Q00975 whole entry): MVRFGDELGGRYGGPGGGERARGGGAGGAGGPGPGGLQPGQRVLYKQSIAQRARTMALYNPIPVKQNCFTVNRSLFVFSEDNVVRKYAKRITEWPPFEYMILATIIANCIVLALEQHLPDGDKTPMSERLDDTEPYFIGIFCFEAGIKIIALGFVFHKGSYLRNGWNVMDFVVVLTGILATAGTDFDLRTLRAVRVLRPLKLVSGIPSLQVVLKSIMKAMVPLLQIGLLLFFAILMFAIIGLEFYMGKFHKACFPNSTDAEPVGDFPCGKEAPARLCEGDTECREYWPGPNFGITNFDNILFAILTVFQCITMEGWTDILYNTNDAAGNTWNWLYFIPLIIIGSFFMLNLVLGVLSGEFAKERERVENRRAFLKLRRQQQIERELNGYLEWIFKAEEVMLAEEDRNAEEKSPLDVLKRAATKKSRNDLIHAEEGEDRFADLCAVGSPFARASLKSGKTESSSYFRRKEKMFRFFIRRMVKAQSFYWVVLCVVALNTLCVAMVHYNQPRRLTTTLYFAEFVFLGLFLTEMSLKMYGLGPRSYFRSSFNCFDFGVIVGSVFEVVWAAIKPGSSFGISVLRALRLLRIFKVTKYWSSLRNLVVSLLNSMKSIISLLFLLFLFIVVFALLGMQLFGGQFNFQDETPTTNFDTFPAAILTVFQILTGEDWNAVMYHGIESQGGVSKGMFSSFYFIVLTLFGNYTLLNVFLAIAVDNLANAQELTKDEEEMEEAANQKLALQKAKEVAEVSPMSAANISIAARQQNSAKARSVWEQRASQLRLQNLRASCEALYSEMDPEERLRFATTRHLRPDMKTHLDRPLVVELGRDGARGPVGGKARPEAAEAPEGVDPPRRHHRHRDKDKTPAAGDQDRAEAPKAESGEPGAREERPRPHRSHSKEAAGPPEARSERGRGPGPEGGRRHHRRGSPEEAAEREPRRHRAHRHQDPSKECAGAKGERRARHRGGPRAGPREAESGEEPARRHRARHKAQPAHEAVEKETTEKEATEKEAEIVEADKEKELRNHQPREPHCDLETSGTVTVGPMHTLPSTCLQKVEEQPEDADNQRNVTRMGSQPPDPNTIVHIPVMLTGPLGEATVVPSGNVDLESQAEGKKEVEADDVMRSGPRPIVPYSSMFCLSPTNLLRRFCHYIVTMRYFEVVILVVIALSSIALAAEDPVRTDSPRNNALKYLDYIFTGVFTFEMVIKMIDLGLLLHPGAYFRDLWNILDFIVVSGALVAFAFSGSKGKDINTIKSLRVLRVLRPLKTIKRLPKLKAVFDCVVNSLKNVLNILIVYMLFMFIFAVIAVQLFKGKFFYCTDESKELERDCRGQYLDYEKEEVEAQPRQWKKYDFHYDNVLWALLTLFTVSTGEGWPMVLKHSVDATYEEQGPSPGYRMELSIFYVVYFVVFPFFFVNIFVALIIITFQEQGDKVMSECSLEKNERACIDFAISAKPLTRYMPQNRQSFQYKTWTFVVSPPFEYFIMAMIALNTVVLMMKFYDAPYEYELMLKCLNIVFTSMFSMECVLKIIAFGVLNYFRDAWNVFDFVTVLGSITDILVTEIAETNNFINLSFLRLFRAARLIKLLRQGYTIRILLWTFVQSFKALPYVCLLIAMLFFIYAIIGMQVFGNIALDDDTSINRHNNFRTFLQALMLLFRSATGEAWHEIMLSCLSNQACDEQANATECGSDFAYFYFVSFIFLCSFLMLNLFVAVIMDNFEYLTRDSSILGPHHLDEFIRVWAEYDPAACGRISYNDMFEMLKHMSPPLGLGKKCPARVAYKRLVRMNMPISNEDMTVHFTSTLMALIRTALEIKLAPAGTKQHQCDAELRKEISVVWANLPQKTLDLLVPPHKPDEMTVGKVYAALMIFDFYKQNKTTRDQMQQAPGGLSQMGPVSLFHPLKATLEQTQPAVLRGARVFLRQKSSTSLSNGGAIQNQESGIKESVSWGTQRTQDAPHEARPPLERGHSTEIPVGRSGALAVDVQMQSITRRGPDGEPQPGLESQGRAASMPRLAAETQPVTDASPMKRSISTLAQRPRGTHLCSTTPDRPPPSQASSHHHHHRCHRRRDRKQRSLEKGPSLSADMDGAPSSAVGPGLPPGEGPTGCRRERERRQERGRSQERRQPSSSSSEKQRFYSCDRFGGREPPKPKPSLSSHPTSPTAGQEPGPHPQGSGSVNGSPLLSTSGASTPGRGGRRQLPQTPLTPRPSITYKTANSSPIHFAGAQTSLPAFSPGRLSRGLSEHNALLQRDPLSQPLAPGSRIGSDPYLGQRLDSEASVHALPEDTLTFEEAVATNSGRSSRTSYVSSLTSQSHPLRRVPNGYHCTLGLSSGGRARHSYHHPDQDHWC
T1 sequence (P54289 25-1103 partner): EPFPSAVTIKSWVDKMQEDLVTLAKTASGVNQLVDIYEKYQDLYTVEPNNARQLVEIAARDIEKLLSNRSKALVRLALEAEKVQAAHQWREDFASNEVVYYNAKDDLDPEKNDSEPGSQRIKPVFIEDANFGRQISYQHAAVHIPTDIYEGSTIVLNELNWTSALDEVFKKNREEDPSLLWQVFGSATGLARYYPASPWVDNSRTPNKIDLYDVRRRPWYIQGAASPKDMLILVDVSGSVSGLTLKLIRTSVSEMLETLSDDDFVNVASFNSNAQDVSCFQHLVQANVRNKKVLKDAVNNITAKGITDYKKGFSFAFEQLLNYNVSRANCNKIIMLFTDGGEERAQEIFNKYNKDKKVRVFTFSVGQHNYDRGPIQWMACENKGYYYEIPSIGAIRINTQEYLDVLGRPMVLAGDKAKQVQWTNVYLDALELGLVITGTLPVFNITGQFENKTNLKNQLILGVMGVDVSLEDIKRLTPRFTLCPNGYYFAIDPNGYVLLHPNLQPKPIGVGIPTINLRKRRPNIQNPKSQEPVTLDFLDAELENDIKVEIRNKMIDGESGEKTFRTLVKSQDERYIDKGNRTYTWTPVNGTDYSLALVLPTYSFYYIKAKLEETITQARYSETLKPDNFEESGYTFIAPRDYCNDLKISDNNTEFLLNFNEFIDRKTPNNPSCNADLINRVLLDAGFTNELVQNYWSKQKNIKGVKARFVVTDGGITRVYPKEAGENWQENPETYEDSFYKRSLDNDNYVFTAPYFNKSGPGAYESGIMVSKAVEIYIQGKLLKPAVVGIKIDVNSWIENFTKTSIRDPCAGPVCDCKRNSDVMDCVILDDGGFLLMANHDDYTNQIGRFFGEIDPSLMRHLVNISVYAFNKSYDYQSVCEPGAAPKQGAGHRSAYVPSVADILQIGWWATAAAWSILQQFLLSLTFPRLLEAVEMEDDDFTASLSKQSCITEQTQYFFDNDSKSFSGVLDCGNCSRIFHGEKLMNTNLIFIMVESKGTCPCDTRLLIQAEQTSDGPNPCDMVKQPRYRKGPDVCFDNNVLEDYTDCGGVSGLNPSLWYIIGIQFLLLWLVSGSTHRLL
T1 sequence (P54284 whole entry partner): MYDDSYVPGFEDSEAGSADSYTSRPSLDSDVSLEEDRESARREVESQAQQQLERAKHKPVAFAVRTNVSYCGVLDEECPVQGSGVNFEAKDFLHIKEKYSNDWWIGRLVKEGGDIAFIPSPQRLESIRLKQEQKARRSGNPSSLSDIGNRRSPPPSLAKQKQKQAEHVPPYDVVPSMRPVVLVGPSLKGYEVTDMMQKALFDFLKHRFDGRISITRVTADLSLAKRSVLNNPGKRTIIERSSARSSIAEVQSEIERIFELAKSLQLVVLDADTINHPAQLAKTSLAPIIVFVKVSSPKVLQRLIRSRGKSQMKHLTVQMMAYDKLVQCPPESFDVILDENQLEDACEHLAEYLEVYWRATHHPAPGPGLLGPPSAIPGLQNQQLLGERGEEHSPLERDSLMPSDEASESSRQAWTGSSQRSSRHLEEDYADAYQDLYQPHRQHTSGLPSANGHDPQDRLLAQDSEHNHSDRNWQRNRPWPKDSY

Row | inhibition at 10 µM [%] | IC50 [nM] | inhibition at 30 µM [%] | Compound
1 | 102 | 1040 |  | CN1CCN(Cc2ccc(CNC(=O)C3(NC(=O)c4cc(C(C)(C)C)nc(C(C)(C)C)c4)CCOCC3)cc2)CC1 [Compound 27, 2,6-di-tert-butyl-N-(4-(4-((4-methylpiperazin-1-yl)methyl)benzylcarbamoyl)tetrahydro-2H-pyran-4-yl)isonicotinamide]
2 | 82.6 | 69.3 | 89.4 | CNC(=O)C1(NC(=O)c2cc(C(C)(C)C)c(OC)c(C(C)(C)C)c2)CCCCC1 [Compound 28, 3,5-di-tert-butyl-4-methoxy-N-(1-(methylcarbamoyl)cyclohexyl)benzamide]
3 | 85.8 | 67.6 | 90.5 | COc1c(C(C)(C)C)cc(C(=O)NC2(C(=O)N3CCOCC3)CCCCC2)cc1C(C)(C)C [Compound 29, 3,5-di-tert-butyl-4-methoxy-N-(1-(morpholine-4-carbonyl)cyclohexyl)benzamide]
4 | 91.7 | 25.2 | 93.4 | COc1c(C(C)(C)C)cc(C(=O)NC2(C(=O)N3CCCC3)CCCCC2)cc1C(C)(C)C [Compound 30, 3,5-di-tert-butyl-4-methoxy-N-(1-(pyrrolidine-1-carbonyl)cyclohexyl)benzamide]
5 | 87.5 | 2.6 | 105 | COc1ccc(CNC(=O)C2(NC(=O)c3cc(C(C)(C)C)c(OC)c(C(C)(C)C)c3)CCCCC2)cc1 [Compound 31, 3,5-di-tert-butyl-4-methoxy-N-(1-(4-methoxybenzylcarbamoyl)cyclohexyl)benzamide]
6 | 88.8 | 5.6 | 98 | COc1c(C(C)(C)C)cc(C(=O)NC2(C(=O)NCc3ccccc3)CCCCC2)cc1C(C)(C)C [Compound 32, N-(1-(benzylcarbamoyl)cyclohexyl)-3,5-di-tert-butyl-4-methoxybenzamide]
7 | 81.4 | 37.6 | 90.5 | COc1c(C(C)(C)C)cc(C(=O)NC2(C(=O)NCc3cccc(C(F)(F)F)c3)CCCCC2)cc1C(C)(C)C [Compound 33, 3,5-di-tert-butyl-4-methoxy-N-(1-(3-(trifluoromethyl)benzylcarbamoyl)cyclohexyl)benzamide]
8 | 68.2 |  | 82.3 | CC(C)(C)c1cc(C(=O)NC2(C(=O)O)CCCCC2)cc(C(C)(C)C)c1 [Compound 34, 1-(3,5-di-tert-butylbenzamido)cyclohexanecarboxylic acid]
9 | 92.5 | 1260 | 98.6 | CNC(=O)C1(NC(=O)c2cc(C(C)(C)C)cc(C(C)(C)C)c2)CCCCC1 [Compound 35, 3,5-di-tert-butyl-N-(1-(methylcarbamoyl)cyclohexyl)benzamide]
10 | 92 | 251 | 96.4 | CC(C)(C)c1cc(C(=O)NC2(C(=O)NCc3ccccc3)CCCC2)cc(C(C)(C)C)c1 [Compound 36, N-(1-(benzylcarbamoyl)cyclopentyl)-3,5-di-tert-butylbenzamide]
11 | 93 | 153 | 95.8 | COc1ccc(CNC(=O)C2(NC(=O)c3cc(C(C)(C)C)cc(C(C)(C)C)c3)CCCC2)cc1 [Compound 37, 3,5-di-tert-butyl-N-(1-(4-methoxybenzylcarbamoyl)cyclopentyl)benzamide]
12 | 97.8 | 35.9 | 99 | COc1ccc(CNC(=O)C2(NC(=O)c3cc(C(C)(C)C)c(OC)c(C(C)(C)C)c3)CCCC2)cc1 [Compound 38, 3,5-di-tert-butyl-4-methoxy-N-(1-(4-methoxybenzylcarbamoyl)cyclopentyl)benzamide]
13 | 79.6 | 513 | 77.9 | CC(C)(C)c1cc(C(=O)NC2(C(=O)NCc3cccc(C(F)(F)F)c3)CCCC2)cc(C(C)(C)C)c1 [Compound 39, 3,5-di-tert-butyl-N-(1-(3-(trifluoromethyl)benzylcarbamoyl)cyclopentyl)benzamide]
14 | 80 | 367 | 77.6 | CC(C)(C#N)c1cc(C(=O)NC2(C(=O)NCc3cccc(C(F)(F)F)c3)CCCCC2)cc(C(C)(C)C#N)c1 [Compound 40, 3,5-bis(2-cyanopropan-2-yl)-N-(1-(3-(trifluoromethyl)benzylcarbamoyl)cyclohexyl)benzamide]
15 | 76 | 985 | 73.3 | CC(C)(C#N)c1cc(C(=O)NC2(C(=O)NCc3ccccc3)CCCCC2)cc(C(C)(C)C#N)c1 [Compound 41, N-(1-(benzylcarbamoyl)cyclohexyl)-3,5-bis(2-cyanopropan-2-yl)benzamide]
16 | 70.6 |  | 80.2 | CC(C)(C)c1cc(NC(=O)C2(NCc3ccc(F)cc3F)CCCCC2)cc(C(C)(C)C)c1 [Compound 42, N-(3,5-di-tert-butylphenyl)-1-(2,4-difluorobenzylamino)cyclohexanecarboxamide]
17 | 76.2 |  | 82.5 | CC(C)(C)c1cc(NC(=O)C2(NCc3ccccc3)CCCCC2)cc(C(C)(C)C)c1 [Compound 43, 1-(benzylamino)-N-(3,5-di-tert-butylphenyl)cyclohexanecarboxamide]
18 | 92.5 | 60.4 | 97.3 | CC(C)(C)c1cc(C(=O)NC2(C(=O)NCc3ccccc3)CCCCC2)cc(C(C)(C)C)c1 [Compound 44, N-(1-(benzylcarbamoyl)cyclohexyl)-3,5-di-tert-butylbenzamide]
19 | 95.7 | 25.2 | 99.5 | COc1ccc(CNC(=O)C2(NC(=O)c3cc(C(C)(C)C)cc(C(C)(C)C)c3)CCCCC2)cc1 [Compound 45, 3,5-di-tert-butyl-N-(1-(4-methoxybenzylcarbamoyl)cyclohexyl)benzamide]
20 | 96.6 | 77.9 | 97.9 | CC(C)(C)c1cc(C(=O)NC2(C(=O)NCc3ccc(Cl)cc3)CCCCC2)cc(C(C)(C)C)c1 [Compound 46, 3,5-di-tert-butyl-N-(1-(4-chlorobenzylcarbamoyl)cyclohexyl)benzamide]
21 | 93.7 | 35.6 | 95.3 | CC(C)(C)c1cc(C(=O)NC2(C(=O)NCc3ccccn3)CCCCC2)cc(C(C)(C)C)c1 [Compound 47, 3,5-di-tert-butyl-N-(1-(pyridin-2-ylmethylcarbamoyl)cyclohexyl)benzamide]
22 | 88.7 | 371 | 90.3 | CN(C)c1ccc(CNC(=O)C2(NC(=O)c3cc(C(C)(C)C)cc(C(C)(C)C)c3)CCCCC2)cc1 [Compound 48, 3,5-di-tert-butyl-N-(1-(4-(dimethylamino)benzylcarbamoyl)cyclohexyl)benzamide]
23 | 103 | 44.2 | 91.6 | CC(C)(C)c1cc(C(=O)NC2(C(=O)NCc3ccc(F)cc3)CCCCC2)cc(C(C)(C)C)c1 [Compound 49, 3,5-di-tert-butyl-N-(1-(4-fluorobenzylcarbamoyl)cyclohexyl)benzamide]
